In ChEMBL document CHEMBL4308841, “Synthesis, in vitro antiproliferative activity, and kinase inhibitory effects of pyrazole-containing diarylureas and diarylamides” (Eur J Med Chem, 2018):

test system: Hs-578T; assay: Growth inhibition of human Hs578T cells assessed as cell growth at 10 uM incubated for 48 hrs by sulforhodamine B assay relative to control; assay type: functional; details: read-out: Activity

Q: Which growth at 10 µM does the source give for COc1cc(Cl)cc(-c2nn(-c3cccc(NC(=O)Nc4cccc(C(F)(F)F)c4)c3)cc2-c2ccncc2)c1 here?
A: 23.1%

test system: SNB-75; assay: Growth inhibition of human SNB75 cells assessed as cell growth at 10 uM incubated for 48 hrs by sulforhodamine B assay relative to control; assay type: functional; details: SNB-75, 48 h, read-out: Activity

Q: For COc1cc(Cl)cc(-c2nn(-c3cccc(NC(=O)Nc4cccc(C(F)(F)F)c4)c3)cc2-c2ccncc2)c1, which growth at 10 µM is on record?
A: 12.5%

test system: SNB-19; assay: Growth inhibition of human SNB19 cells assessed as cell growth at 10 uM incubated for 48 hrs by sulforhodamine B assay relative to control; assay type: functional; details: SNB-19, 48 h, read-out: Activity

Q: How did the growth at 10 µM turn out when COc1cc(Cl)cc(-c2nn(-c3cccc(NC(=O)Nc4cccc(C(F)(F)F)c4)c3)cc2-c2ccncc2)c1 was run?
A: 16.1%

test system: T47D; assay: Growth inhibition of human T47D cells assessed as cell growth at 10 uM incubated for 48 hrs by sulforhodamine B assay relative to control; assay type: functional; details: read-out: Activity

Q: Which growth at 10 µM does the source give for COc1cc(Cl)cc(-c2nn(-c3cccc(NC(=O)Nc4cccc(C(F)(F)F)c4)c3)cc2-c2ccncc2)c1 here?
A: -0.45%

test system: K562; assay: Growth inhibition of human K562 cells assessed as cell growth at 10 uM incubated for 48 hrs by sulforhodamine B assay relative to control; assay type: functional; details: K562, 48 h, read-out: Activity

Q: Which growth at 10 µM does the source give for COc1cc(Cl)cc(-c2nn(-c3cccc(NC(=O)Nc4cccc(C(F)(F)F)c4)c3)cc2-c2ccncc2)c1 here?
A: 7.61%

test system: MDA-MB-231; assay: Growth inhibition of human MDA-MB-231 cells assessed as cell growth at 10 uM incubated for 48 hrs by sulforhodamine B assay relative to control; assay type: functional; details: MDA-MB-231, 48 h, read-out: Activity

Q: How did the growth at 10 µM turn out when COc1cc(Cl)cc(-c2nn(-c3cccc(NC(=O)Nc4cccc(C(F)(F)F)c4)c3)cc2-c2ccncc2)c1 was run?
A: -9.21%

test system: SW-620; assay: Growth inhibition of human SW620 cells assessed as cell growth at 10 uM incubated for 48 hrs by sulforhodamine B assay relative to control; assay type: functional; details: SW-620, 48 h, read-out: Activity

Q: With COc1cc(Cl)cc(-c2nn(-c3cccc(NC(=O)Nc4cccc(C(F)(F)F)c4)c3)cc2-c2ccncc2)c1 as the molecule, how does the growth at 10 µM read?
A: 11.2%

test system: HL-60(TB); assay: Growth inhibition of human HL-60(TB) cells assessed as cell growth at 10 uM incubated for 48 hrs by sulforhodamine B assay relative to control; assay type: functional; details: HL-60, 48 h, read-out: Activity

Q: How did the growth at 10 µM turn out when COc1cc(Cl)cc(-c2nn(-c3cccc(NC(=O)Nc4cccc(C(F)(F)F)c4)c3)cc2-c2ccncc2)c1 was run?
A: -7.89%

test system: NCI-H23; assay: Growth inhibition of human NCI-H23 cells assessed as cell growth at 10 uM incubated for 48 hrs by sulforhodamine B assay relative to control; assay type: functional; details: NCI-H23, 48 h, read-out: Activity

Q: COc1cc(Cl)cc(-c2nn(-c3cccc(NC(=O)Nc4cccc(C(F)(F)F)c4)c3)cc2-c2ccncc2)c1 was tested. Which growth at 10 µM did it give?
A: -5.1%

test system: COLO 205; assay: Growth inhibition of human COLO205 cells assessed as cell growth at 10 uM incubated for 48 hrs by sulforhodamine B assay relative to control; assay type: functional; details: COLO 205, 48 h, read-out: Activity

Q: How did the growth at 10 µM turn out when COc1cc(Cl)cc(-c2nn(-c3cccc(NC(=O)Nc4cccc(C(F)(F)F)c4)c3)cc2-c2ccncc2)c1 was run?
A: -31.2%

test system: SF-295; assay: Growth inhibition of human SF295 cells assessed as cell growth at 10 uM incubated for 48 hrs by sulforhodamine B assay relative to control; assay type: functional; details: SF-295, 48 h, read-out: Activity

Q: For COc1cc(Cl)cc(-c2nn(-c3cccc(NC(=O)Nc4cccc(C(F)(F)F)c4)c3)cc2-c2ccncc2)c1, which growth at 10 µM is on record?
A: -7.87%

test system: SF-268; assay: Growth inhibition of human SF268 cells assessed as cell growth at 10 uM incubated for 48 hrs by sulforhodamine B assay relative to control; assay type: functional; details: SF-268, 48 h, read-out: Activity

Q: Which growth at 10 µM does the source give for COc1cc(Cl)cc(-c2nn(-c3cccc(NC(=O)Nc4cccc(C(F)(F)F)c4)c3)cc2-c2ccncc2)c1 here?
A: 27.9%

test system: A549; assay: Growth inhibition of human A549/ATCC cells assessed as cell growth at 10 uM incubated for 48 hrs by sulforhodamine B assay relative to control; assay type: functional; details: A549, 48 h, read-out: Activity

Q: COc1cc(Cl)cc(-c2nn(-c3cccc(NC(=O)Nc4cccc(C(F)(F)F)c4)c3)cc2-c2ccncc2)c1 was tested. Which growth at 10 µM did it give?
A: 8.08%

test system: OVCAR-5; assay: Growth inhibition of human OVCAR5 cells assessed as cell growth at 10 uM incubated for 48 hrs by sulforhodamine B assay relative to control; assay type: functional; details: OVCAR-5, 48 h, read-out: Activity

Q: Which growth at 10 µM does the source give for COc1cc(Cl)cc(-c2nn(-c3cccc(NC(=O)Nc4cccc(C(F)(F)F)c4)c3)cc2-c2ccncc2)c1 here?
A: 34.1%

test system: HCT-15; assay: Growth inhibition of human HCT15 cells assessed as cell growth at 10 uM incubated for 48 hrs by sulforhodamine B assay relative to control; assay type: functional; details: HCT-15, 48 h, read-out: Activity

Q: How did the growth at 10 µM turn out when COc1cc(Cl)cc(-c2nn(-c3cccc(NC(=O)Nc4cccc(C(F)(F)F)c4)c3)cc2-c2ccncc2)c1 was run?
A: 7.83%

test system: RPMI-8226; assay: Growth inhibition of human RPMI8226 cells assessed as cell growth at 10 uM incubated for 48 hrs by sulforhodamine B assay relative to control; assay type: functional; details: RPMI-8226, 48 h, read-out: Activity

Q: For COc1cc(Cl)cc(-c2nn(-c3cccc(NC(=O)Nc4cccc(C(F)(F)F)c4)c3)cc2-c2ccncc2)c1, which growth at 10 µM is on record?
A: -14.2%

test system: M14; assay: Growth inhibition of human M14 cells assessed as cell growth at 10 uM incubated for 48 hrs by sulforhodamine B assay relative to control; assay type: functional; details: M14, 48 h, read-out: Activity

Q: With COc1cc(Cl)cc(-c2nn(-c3cccc(NC(=O)Nc4cccc(C(F)(F)F)c4)c3)cc2-c2ccncc2)c1 as the molecule, how does the growth at 10 µM read?
A: 9.99%

test system: PC-3; assay: Growth inhibition of human PC3 cells assessed as cell growth at 10 uM incubated for 48 hrs by sulforhodamine B assay relative to control; assay type: functional; details: PC-3, 48 h, read-out: Activity

Q: Which growth at 10 µM does the source give for COc1cc(Cl)cc(-c2nn(-c3cccc(NC(=O)Nc4cccc(C(F)(F)F)c4)c3)cc2-c2ccncc2)c1 here?
A: -9.92%

test system: U-251; assay: Growth inhibition of human U251 cells assessed as cell growth at 10 uM incubated for 48 hrs by sulforhodamine B assay relative to control; assay type: functional; details: U-251, 48 h, read-out: Activity

Q: Which growth at 10 µM does the source give for COc1cc(Cl)cc(-c2nn(-c3cccc(NC(=O)Nc4cccc(C(F)(F)F)c4)c3)cc2-c2ccncc2)c1 here?
A: 4.59%

test system: SF-539; assay: Growth inhibition of human SF539 cells assessed as cell growth at 10 uM incubated for 48 hrs by sulforhodamine B assay relative to control; assay type: functional; details: SF-539, 48 h, read-out: Activity

Q: Which growth at 10 µM does the source give for COc1cc(Cl)cc(-c2nn(-c3cccc(NC(=O)Nc4cccc(C(F)(F)F)c4)c3)cc2-c2ccncc2)c1 here?
A: 17%

test system: OVCAR-4; assay: Growth inhibition of human OVCAR4 cells assessed as cell growth at 10 uM incubated for 48 hrs by sulforhodamine B assay relative to control; assay type: functional; details: OVCAR-4, 48 h, read-out: Activity

Q: COc1cc(Cl)cc(-c2nn(-c3cccc(NC(=O)Nc4cccc(C(F)(F)F)c4)c3)cc2-c2ccncc2)c1 was tested. Which growth at 10 µM did it give?
A: 3.28%

test system: NCI-H322M; assay: Growth inhibition of human NCI-H322M cells assessed as cell growth at 10 uM incubated for 48 hrs by sulforhodamine B assay relative to control; assay type: functional; details: read-out: Activity

Q: How did the growth at 10 µM turn out when COc1cc(Cl)cc(-c2nn(-c3cccc(NC(=O)Nc4cccc(C(F)(F)F)c4)c3)cc2-c2ccncc2)c1 was run?
A: 26.2%

test system: SK-MEL-28; assay: Growth inhibition of human SK-MEL-28 cells assessed as cell growth at 10 uM incubated for 48 hrs by sulforhodamine B assay relative to control; assay type: functional; details: SK-MEL-28, 48 h, read-out: Activity

Q: How did the growth at 10 µM turn out when COc1cc(Cl)cc(-c2nn(-c3cccc(NC(=O)Nc4cccc(C(F)(F)F)c4)c3)cc2-c2ccncc2)c1 was run?
A: 14.1%

test system: SR; assay: Growth inhibition of human SR cells assessed as cell growth at 10 uM incubated for 48 hrs by sulforhodamine B assay relative to control; assay type: functional; details: read-out: Activity

Q: How did the growth at 10 µM turn out when COc1cc(Cl)cc(-c2nn(-c3cccc(NC(=O)Nc4cccc(C(F)(F)F)c4)c3)cc2-c2ccncc2)c1 was run?
A: -13.5%

test system: OVCAR-8; assay: Growth inhibition of human OVCAR8 cells assessed as cell growth at 10 uM incubated for 48 hrs by sulforhodamine B assay relative to control; assay type: functional; details: OVCAR-8, 48 h, read-out: Activity

Q: COc1cc(Cl)cc(-c2nn(-c3cccc(NC(=O)Nc4cccc(C(F)(F)F)c4)c3)cc2-c2ccncc2)c1 was tested. Which growth at 10 µM did it give?
A: -12.3%

test system: A498; assay: Growth inhibition of human A498 cells assessed as cell growth at 10 uM incubated for 48 hrs by sulforhodamine B assay relative to control; assay type: functional; details: A498, 48 h, read-out: Activity

Q: With COc1cc(Cl)cc(-c2nn(-c3cccc(NC(=O)Nc4cccc(C(F)(F)F)c4)c3)cc2-c2ccncc2)c1 as the molecule, how does the growth at 10 µM read?
A: -6.74%

test system: KM12; assay: Growth inhibition of human KM12 cells assessed as cell growth at 10 uM incubated for 48 hrs by sulforhodamine B assay relative to control; assay type: functional; details: KM12, 48 h, read-out: Activity

Q: COc1cc(Cl)cc(-c2nn(-c3cccc(NC(=O)Nc4cccc(C(F)(F)F)c4)c3)cc2-c2ccncc2)c1 was tested. Which growth at 10 µM did it give?
A: 9.81%

test system: CCRF-CEM; assay: Growth inhibition of human CCRF-CEM cells assessed as cell growth at 10 uM incubated for 48 hrs by sulforhodamine B assay relative to control; assay type: functional; details: read-out: Activity

Q: COc1cc(Cl)cc(-c2nn(-c3cccc(NC(=O)Nc4cccc(C(F)(F)F)c4)c3)cc2-c2ccncc2)c1 was tested. Which growth at 10 µM did it give?
A: 3.34%

test system: HCC 2998; assay: Growth inhibition of human HCC2998 cells assessed as cell growth at 10 uM incubated for 48 hrs by sulforhodamine B assay relative to control; assay type: functional; details: HCC 2998, 48 h, read-out: Activity

Q: How did the growth at 10 µM turn out when COc1cc(Cl)cc(-c2nn(-c3cccc(NC(=O)Nc4cccc(C(F)(F)F)c4)c3)cc2-c2ccncc2)c1 was run?
A: 19%

test system: BT-549; assay: Growth inhibition of human BT549 cells assessed as cell growth at 10 uM incubated for 48 hrs by sulforhodamine B assay relative to control; assay type: functional; details: BT-549, 48 h, read-out: Activity

Q: With COc1cc(Cl)cc(-c2nn(-c3cccc(NC(=O)Nc4cccc(C(F)(F)F)c4)c3)cc2-c2ccncc2)c1 as the molecule, how does the growth at 10 µM read?
A: 12.9%

test system: SK-MEL-5; assay: Growth inhibition of human SK-MEL-5 cells assessed as cell growth at 10 uM incubated for 48 hrs by sulforhodamine B assay relative to control; assay type: functional; details: SK-MEL-5, 48 h, read-out: Activity

Q: With COc1cc(Cl)cc(-c2nn(-c3cccc(NC(=O)Nc4cccc(C(F)(F)F)c4)c3)cc2-c2ccncc2)c1 as the molecule, how does the growth at 10 µM read?
A: 5.3%

test system: MCF7; assay: Growth inhibition of human MCF7 cells assessed as cell growth at 10 uM incubated for 48 hrs by sulforhodamine B assay relative to control; assay type: functional; details: MCF7, 48 h, read-out: Activity

Q: With COc1cc(Cl)cc(-c2nn(-c3cccc(NC(=O)Nc4cccc(C(F)(F)F)c4)c3)cc2-c2ccncc2)c1 as the molecule, how does the growth at 10 µM read?
A: 0.3%

test system: Malme-3M; assay: Growth inhibition of human MALME-3M cells assessed as cell growth at 10 uM incubated for 48 hrs by sulforhodamine B assay relative to control; assay type: functional; details: read-out: Activity

Q: How did the growth at 10 µM turn out when COc1cc(Cl)cc(-c2nn(-c3cccc(NC(=O)Nc4cccc(C(F)(F)F)c4)c3)cc2-c2ccncc2)c1 was run?
A: -16.6%
